Results taken from ChEMBL document CHEMBL1126443, “Cholinergic agents: aldehyde, ketone, and oxime analogues of the muscarinic agonist UH5” (Bioorg Med Chem Lett, 1992).

Tests used:
[1] = molecular target: T1, Muscarinic acetylcholine receptor (Rattus norvegicus) (UniProt P08482+P08483+P08485+P08911+P10980); test: Relative binding efficacy for muscarinic receptors using QNB and CMD; assay type: protein assay
[2] = molecular target: Muscarinic acetylcholine receptor; test: Inhibition of 0.1 nM [3H]cis-methyldioxolane binding to rat neocortex muscarinic receptor; assay type: protein assay
[3] = molecular target: Muscarinic acetylcholine receptor; test: Inhibition of 0.03 nM [3H]quinuclidinyl benzylate binding to rat neocortex muscarinic receptor; assay type: protein assay
[4] = molecular target: T1, Muscarinic acetylcholine receptor (Rattus norvegicus); test: Percent inhibition towards muscarinic receptor in rat neocortex using 0.03 nM [3H]quinuclidinyl benzylate receptor binding assay (RQMB) was determined
[5] = molecular target: T1, Muscarinic acetylcholine receptor (Rattus norvegicus); test: Percent inhibition towards muscarinic receptor in rat neocortex using 0.1 nM [3H]cis-methyldioxolane receptor binding assay (RCMD)
[6] = molecular target: T2, Muscarinic acetylcholine receptor M1 (Homo sapiens, UniProt P11229); test: Displacement of [3H]QNB in genetically transformed mouse cell line (m1C2) transfected with Muscarinic acetylcholine receptor M1
T2 sequence (P11229 whole entry): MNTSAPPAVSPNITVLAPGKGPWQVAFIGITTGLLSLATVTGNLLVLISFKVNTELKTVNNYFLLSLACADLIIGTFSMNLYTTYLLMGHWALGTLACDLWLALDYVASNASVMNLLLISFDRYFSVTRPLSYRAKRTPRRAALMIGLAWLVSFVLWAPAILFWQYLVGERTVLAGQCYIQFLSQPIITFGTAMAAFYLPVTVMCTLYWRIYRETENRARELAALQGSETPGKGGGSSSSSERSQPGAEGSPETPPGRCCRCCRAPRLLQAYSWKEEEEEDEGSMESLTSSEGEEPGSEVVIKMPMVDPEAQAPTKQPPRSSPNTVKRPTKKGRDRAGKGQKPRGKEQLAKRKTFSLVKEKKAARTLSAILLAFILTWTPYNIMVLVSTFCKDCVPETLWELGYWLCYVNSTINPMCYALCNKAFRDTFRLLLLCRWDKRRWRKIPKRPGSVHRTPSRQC

[7] = Selectivity ratio of M2/m1 receptors
[8] = molecular target: T3, Muscarinic acetylcholine receptor M2 (Rattus norvegicus, UniProt P10980); test: Displacement of [3H]QNB from Muscarinic acetylcholine receptor M2 from rat heart homogenates; assay type: tissue-based
T3 sequence (P10980 whole entry): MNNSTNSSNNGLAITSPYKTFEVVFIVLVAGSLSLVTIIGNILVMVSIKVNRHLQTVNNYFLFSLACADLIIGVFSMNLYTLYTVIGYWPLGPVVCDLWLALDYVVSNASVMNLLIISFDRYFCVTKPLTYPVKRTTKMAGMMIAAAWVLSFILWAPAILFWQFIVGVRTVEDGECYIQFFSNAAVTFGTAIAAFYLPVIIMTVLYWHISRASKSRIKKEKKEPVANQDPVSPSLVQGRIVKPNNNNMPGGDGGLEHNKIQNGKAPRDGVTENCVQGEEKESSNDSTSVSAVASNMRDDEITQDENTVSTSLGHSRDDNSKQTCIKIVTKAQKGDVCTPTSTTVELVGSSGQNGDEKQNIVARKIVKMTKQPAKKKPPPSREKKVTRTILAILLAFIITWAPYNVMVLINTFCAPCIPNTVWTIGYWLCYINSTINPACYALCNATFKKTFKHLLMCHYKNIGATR

Row | Compound | Efficacy ratio [1] | IC50 [2] | IC50 [3] | inhibition [4] | inhibition [5] | IC50 [6] | Selectivity ratio [7] | IC50 [8]
1 | CC(=O)C(C)CC#CCN(C)C (centres undefined) | 549 | 101 nM | 55.4 µM | – | – | – | – | –
2 | CO/N=C/C(C)CC#CCN1CCCC1 (centres undefined) | – | – | – | 15% | 27% | – | – | –
3 | CC(=O)N(C)CC#CCN1CCCC1 | 544 | 4.5 nM | 2.447 µM | – | – | 2.45 µM | 0.9 | 2.01 µM
4 | CC(C=O)CC#CCN1CCCC1 (centres undefined) | – | – | – | 9% | 1% | – | – | –
5 | CC(=O)N(C)CC#CCN(C)C | 4070 | 21.6 nM | 87.876 µM | – | – | 87.9 µM | 0.2 | 4.46 µM
6 | CO/N=C(\C)CCC#CCN(C)C | – | – | – | 1% | 5% | – | – | –
7 | CC(=O)CCC#CCN(C)C | 965 | 68 nM | 65.6 µM | – | – | 51.8 µM | 0.4 | 18.9 µM
8 | CO/N=C(\C)CCC#CCN1CCCC1 | – | – | – | 17% | 5% | – | – | –
9 | CC(=O)C(C)CC#CCN1CCCC1 (centres undefined) | 97 | 59 nM | 5.696 µM | – | – | 2.8 µM | 2.3 | 6.5 µM
10 | CO/N=C(\C)C(C)CC#CCN1CCCC1 (centres undefined) | – | – | – | 26% | 21% | – | – | –
11 | C/C(=N\O)C(C)CC#CCN(C)C (centres undefined) | – | – | – | 9% | 12% | – | – | –
12 | CC(C=O)CC#CCN(C)C (centres undefined) | – | – | – | 0% | 0% | – | – | –
13 | CC(=O)CCC#CCN1CCCC1 | 34 | 214 nM | 7.28 µM | – | – | – | – | –
14 | O=C1CCCN1CC#CCN1CCCC1 [OXOTREMORINE] | 308 | 1.5 nM | 0.407 µM | – | – | 0.364 µM | 2.4 | –
15 | CC(/C=N/O)CC#CCN(C)C (centres undefined) | 441 | 30 nM | 13.23 µM | – | – | 25.9 µM | 1.3 | 34.2 µM
16 | CC(/C=N/O)CC#CCN1CCCC1 (centres undefined) | 92 | 21 nM | 1.928 µM | – | – | 0.92 µM | 4.8 | 5.5 µM
17 | CO/N=C/C(C)CC#CCN(C)C (centres undefined) | – | – | – | 4% | 6% | – | – | –
18 | C[N+](C)(C)CC#CCOC(=O)Nc1cccc(Cl)c1.[Cl-] | 84 | 64 nM | 5.388 µM | – | – | 7.24 µM | 4.7 | 34.1 µM
19 | CO/N=C(\C)C(C)CC#CCN(C)C (centres undefined) | – | – | – | 3% | 5% | – | – | –
20 | C/C(=N\O)C(C)CC#CCN1CCCC1 (centres undefined) | – | – | – | 15% | 21% | – | – | –
21 | C/C(CCC#CCN(C)C)=N\O | 265 | 139 nM | 36.769 µM | – | – | – | – | –
22 | C/C(CCC#CCN1CCCC1)=N\O | 3 | 373 nM | 1.254 µM | – | – | – | – | –
